Experimental data reported in patent publication US20110098283A1, “3-CINNOLINECARBOXAMIDE DERIVATIVES AND THEIR USE FOR TREATING CANCER” (ASTRAZENECA AB, priority 2007, published 2011).

What follows are compounds tested against T1, CSF-1R (His-tagged kinase domain, amino acids 568-912) (Homo sapiens, UniProt P07333) (assay: Assay 1: CSF-1R in vitro AlphaScreen Assay). Conditions: phosphorylation of pEY substrate; 0.57 nM CSF-1R, 90 μM ATP.
T1 construct: The His-tagged kinase domain of CSF-1R (i.e., amino acids 568-912, GeneBank ID NM_005211); His; made in house; host or cells: baculovirus infected SF+Express insect cells
T1 sequence (P07333 568-912): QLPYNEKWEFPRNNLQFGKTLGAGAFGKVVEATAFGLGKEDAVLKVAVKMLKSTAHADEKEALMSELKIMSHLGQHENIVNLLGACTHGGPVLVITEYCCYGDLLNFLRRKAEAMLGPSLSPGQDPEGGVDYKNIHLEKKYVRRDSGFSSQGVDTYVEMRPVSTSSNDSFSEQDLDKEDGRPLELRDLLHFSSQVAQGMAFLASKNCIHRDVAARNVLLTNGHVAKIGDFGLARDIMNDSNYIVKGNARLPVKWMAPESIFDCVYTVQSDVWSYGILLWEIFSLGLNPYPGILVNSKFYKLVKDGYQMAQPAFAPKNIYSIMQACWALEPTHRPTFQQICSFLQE
Assay type: biochemical
Experimental: Assay 1: CSF-1R in vitro AlphaScreen Assay
Activity of purified CSF-1R was determined in vitro using an Amplified Luminescent Proximity Homogeneous Assay (ALPHA) (Perkin Elmer), which measures phosphorylation of the CSF-1R substrate, biotinylated poly-glutamine-tyrosine peptide (pEY-HTRF CisBio 61GT0BLD), as described below.
The phosphorylation of the CSF-1R substrate in the presence and absence of the compound of interest was determined. […] Plates were incubated at 25° C. for 18 hours in the dark. Phosphorylated substrate was detected by an EnVision plate reader (Perkin Elmer) 680 nm excitation, 520-620 nm emission. Data was graphed and IC50s calculated using Excel Fit (Microsoft).

Row | SMILES | IC50 [nM]
1 | CCOc1cc2nnc(C(N)=O)c(Nc3ccc(C)cc3F)c2cc1N1CCCN(C)CC1 [Example 27, 7-Ethoxy-4-[(2-fluoro-4-methylphenyl)amino]-6-(4-methyl-1,4-diazepan-1-yl)cinnoline-3-carboxamide] | < 3
2 | COCCOc1cc2nnc(C(N)=O)c(Nc3ccc(C)cc3F)c2cc1N1CCN(C)CC1 [Example 18, 4-[(2-Fluoro-4-methylphenyl)amino]-7-(2-methoxyethoxy)-6-(4-methylpiperazin-1-yl)cinnoline-3-carboxamide] | < 3
3 | COCCOc1cc2nnc(C(N)=O)c(Nc3ccc(F)cc3F)c2cc1N1CCN(C(C)C)CC1 [Example 24, 4-[(2,4-Difluorophenyl)amino]-6-(4-isopropylpiperazin-1-yl)-7-(2-methoxyethoxy)cinnoline-3-carboxamide] | < 3
4 | COc1cc2nnc(C(N)=O)c(Nc3cccc(Cl)c3F)c2cc1N1CCN(C)CC1 [Example 14, 4-[(3-Chloro-2-fluorophenyl)amino]-7-methoxy-6-(4-methylpiperazin-1-yl)cinnoline-3-carboxamide] | < 3
5 | COCCOc1cc2nnc(C(N)=O)c(Nc3cccc(Cl)c3F)c2cc1N1CCN(C)CC1 [Example 21, 4-[(3-Chloro-2-fluorophenyl)amino]-7-(2-methoxyethoxy)-6-(4-methylpiperazin-1-yl)cinnoline-3-carboxamide] | < 3
6 | CCOc1cc2nnc(C(N)=O)c(Nc3ccc(C)cc3F)c2cc1N1C[C@@H](C)N[C@@H](C)C1 [Example 28, 6-[(3R,5S)-3,5-Dimethylpiperazin-1-yl]-7-ethoxy-4-[(2-fluoro-4-methylphenyl)amino]cinnoline-3-carboxamide] | < 3
7 | COc1cc2nnc(C(N)=O)c(Nc3cccc(Cl)c3Cl)c2cc1OC [Example 5, 4-[(2,3-Dichlorophenyl)amino]-6,7-dimethoxycinnoline-3-carboxamide] | < 3
8 | CCOc1cc2nnc(C(N)=O)c(Nc3ccc(F)cc3F)c2cc1N1CCN(CC)CC1 [Example 12, 4-[(2,4-Difluorophenyl)amino]-7-ethoxy-6-(4-ethylpiperazin-1-yl)cinnoline-3-carboxamide] | 5
9 | COc1cc2nnc(C(N)=O)c(Nc3ccc(C)cc3F)c2cc1N1CCN(C(C)(C)C)CC1 [Example 16, 6-(4-tert-Butylpiperazin-1-yl)-4-[(2-fluoro-4-methylphenyl)amino]-7-methoxycinnoline-3-carboxamide] | 9
10 | CCOc1cc2nnc(C(N)=O)c(Nc3cc(C)ccc3F)c2cc1N1CCN(C)CC1 [Example 6, 7-Ethoxy-4-[(2-fluoro-5-methylphenyl)amino]-6-(4-methylpiperazin-1-yl)cinnoline-3-carboxamide] | < 3
11 | COCCOc1cc2nnc(C(N)=O)c(Nc3ccc(F)cc3F)c2cc1N1CCN(C)CC1 [Example 17, 4-[(2,4-Difluorophenyl)amino]-7-(2-methoxyethoxy)-6-(4-methylpiperazin-1-yl)cinnoline-3-carboxamide] | < 3
12 | COc1cc2nnc(C(N)=O)c(Nc3cc(C)ccc3F)c2cc1OC [Example 4, 4-[(2-Fluoro-5-methylphenyl)amino]-6,7-dimethoxycinnoline-3-carboxamide] | 5
13 | COc1cc2nnc(C(N)=O)c(Nc3cc(C)ccc3F)c2cc1N1CCN(C(C)C)CC1 [Example 23, 4-[(2-Fluoro-5-methylphenyl)amino]-6-(4-isopropylpiperazin-1-yl)-7-methoxycinnoline-3-carboxamide] | < 5
14 | COc1cc2nnc(C(N)=O)c(Nc3ccc(C)cc3F)c2cc1-c1ccncc1 [Example 26, 4-[(2-Fluoro-4-methylphenyl)amino]-7-methoxy-6-pyridin-4-ylcinnoline-3-carboxamide] | 51
15 | CCOc1cc2nnc(C(N)=O)c(Nc3ccc(C)cc3F)c2cc1N1CCN(C(C)C)CC1 [Example 25, 7-Ethoxy-4-[(2-fluoro-4-methylphenyl)amino]-6-(4-isopropylpiperazin-1-yl)cinnoline-3-carboxamide] | < 3
16 | COc1cc2nnc(C(N)=O)c(Nc3cc(C)ccc3F)c2cc1N1CCN(C)CC1 [Example 22, 4-[(2-Fluoro-5-methylphenyl)amino]-7-methoxy-6-(4-methylpiperazin-1-yl)cinnoline-3-carboxamide] | < 3
17 | CCOc1cc2nnc(C(N)=O)c(Nc3ccc(C)cc3F)c2cc1N1CCN(C)CC1 [Example 10, 7-Ethoxy-4-[(2-fluoro-4-methyl-phenyl)amino]-6-(4-methylpiperazin-1-yl)cinnoline-3-carboxamide] | < 3
18 | COc1cc2nnc(C(N)=O)c(Nc3ccc(C)cc3F)c2cc1OC [Example 2, 4-[(2-Fluoro-4-methylphenyl)amino]-6,7-dimethoxycinnoline-3-carboxamide] | 8
19 | COc1cc2nnc(C(N)=O)c(Nc3ccc(F)cc3F)c2cc1N1CCN(C)CC1 [Example 20, 4-[(2,4-Difluorophenyl)amino]-7-methoxy-6-(4-methylpiperazin-1-yl)cinnoline-3-carboxamide] | < 3
20 | CCOc1cc2nnc(C(N)=O)c(Nc3ccc(F)cc3F)c2cc1N1CCN(C(C)C)CC1 [Example 11, 4-[(2,4-Difluorophenyl)amino]-7-ethoxy-6-(4-propan-2-ylpiperazin-1-yl)cinnoline-3-carboxamide] | 8
21 | CCOc1cc2nnc(C(N)=O)c(Nc3cccc(Cl)c3Cl)c2cc1N1CCN(C)CC1 [Example 8, 4-[(2,3-Dichlorophenyl)amino]-7-ethoxy-6-(4-methylpiperazin-1-yl)cinnoline-3-carboxamide] | 3
22 | COc1cc2nnc(C(N)=O)c(Nc3ccc(F)cc3F)c2cc1OC [Example 1, 4-[(2,4-Difluorophenyl)amino]-6,7-dimethoxycinnoline-3-carboxamide] | < 3
23 | COCCOc1cc2nnc(C(N)=O)c(Nc3cc(C)ccc3F)c2cc1N1CCN(C)CC1 [Example 19, 4-[(2-Fluoro-5-methylphenyl)amino]-7-(2-methoxyethoxy)-6-(4-methylpiperazin-1-yl)cinnoline-3-carboxamide] | < 3
24 | CCOc1cc2nnc(C(N)=O)c(Nc3cccc(Cl)c3F)c2cc1N1CCN(C)CC1 [Example 9, 4-[(3-Chloro-2-fluoro-phenyl)amino]-7-ethoxy-6-(4-methylpiperazin-1-yl)cinnoline-3-carboxamide] | < 15

These compounds were tested against T1, CSF-1R (His-tagged kinase domain, amino acids 568-912) (assay: Assay 2: CSF1R in-vitro AlphaScreen Assay). Conditions: phosphorylation of pEY substrate; 0.46 nM CSF-1R, 12 mM ATP in mix.
Assay type: biochemical
Experimental: Assay 2: CSF1R in-vitro AlphaScreen Assay
Activity of purified CSF-1R was determined in-vitro using an Amplified Luminescent Proximity Homogeneous Assay (ALPHA) (Perkin Elmer, Mass.), which measures phosphorylation of CSF-1R substrate, biotinylated poly-glutamine-tyrosine peptide (pEY-HTRF CisBio 61GT0BLD), as described below. The His-tagged kinase domain of CSF-1R (i e, amino acids 568-912, GeneBank ID NM_005211) was purified from baculovirus infected SF+Express insect cells (1.4×10^6 cells/ml), French pressed and chromatographed through subsequent QIAgen Ni-NTA, Superflow Mono Q HR 10/10, and Superdex 200 SEC columns.
The phosphorylation of the CSF-1R substrate in the presence and absence of the compound of interest was determined. Briefly, 5 ul of Enzyme/Substrate/adenosine triphosphate (ATP) mix consisting of 0.46 nM of purified CSF-1R, 12 nM pEY substrate, and 12 mM ATP in 1.2× buffer was preincubated with 2 ul of compound for 20 minutes at 25° C. Reactions were initiated with 5 ul of Metal mix consisting of 24 mM MgCl2 in 1.2× buffer and incubated at 25° C. for 90 minutes and reactions were stopped by addition of 5 ul of Detection mix consisting of 20 mM HEPES, 102 mM ethylenediamine tetraacetic acid, 1.65 mg/ml BSA, 136 mM NaCl, 40 ug/ml Streptavidin donor beads (Perkin Elmer, Mass., Catalog #6760002), and 40 ug/ml phosphotyrosine-specific antibody coated acceptor beads (Perkin Elmer, Mass., Catalog #6760620). Plates were incubated at 25° C. for 18 hours in the dark. Phosphorylated substrate was detected by an EnVision plate reader (Perkin Elmer) 680 nm excitation, 520-620 nm emission. Data was graphed and IC50s calculated using Excel Fit (Microsoft).

Row | SMILES | IC50 [nM]
25 | COc1cc2nnc(C(N)=O)c(Nc3ccc(C)cc3F)c2cc1N1CCN2C(=NNC2O)C1 (stereo not shown) [Example 32, 4-[(2-Fluoro-4-methylphenyl)amino]-6-(3-hydroxy-2,5,6,8-tetrahydro[1,2,4]triazolo[4,3-a]pyrazin-7(3H)-yl)-7-methoxycinnoline-3-carboxamide] | 8
26 | COc1cc2nnc(C(N)=O)c(Nc3ccc(C)cc3F)c2cc1C1=CCN(CCO)CC1 [Example 34, 4-[(2-Fluoro-4-methylphenyl)amino]-6-[1-(2-hydroxyethyl)-1,2,3,6-tetrahydropyridin-4-yl]-7-methoxycinnoline-3-carboxamide] | 5
27 | COc1cc2nnc(C(N)=O)c(Nc3ccc(F)cc3F)c2cc1N1C[C@@H](C)N[C@@H](C)C1 [Example 44, 4-[(2,4-Difluorophenyl)amino]-6-[(3R,5S)-3,5-dimethylpiperazin-1-yl]-7-methoxycinnoline-3-carboxamide] | 16
28 | COc1cc2nnc(C(N)=O)c(Nc3ccc(C)cc3F)c2cc1N1CCN(CC(F)(F)F)CC1 [Example 42, 4-[(2-Fluoro-4-methylphenyl)amino]-7-methoxy-6-[4-(2,2,2-trifluoroethyl)piperazin-1-yl]cinnoline-3-carboxamide] | 7
